Results as given in patent US11590236B2, “Compositions and methods for altering macrophage phenotype” (priority 2019, dated 2023).

Test system: macrophages differentiated from human peripheral blood monocytes
Test: Cell death / viability of macrophages after drug exposure
Assay type: cell-based
Conditions: all concentrations tested
Experimental: As with Cu(II)-tilmanocept, MT1001.8 was evaluated using macrophages differentiated from human peripheral blood monocytes cultured in supplemented RPMI-1640 medium to which GM-CSF was added. The resulting macrophages were then exposed for 23 hours to MT1001.8 at different concentrations ranging from 0 (controls) to 6.68 μM. Free doxorubicin and the mannosylated dextran construct without the doxorubicin payload were also evaluated as controls. After the 23-hour exposure to the drug construct, the drug containing media were removed and replaced with fresh supplemented RPMI-1640 with GM-CSF and incubated for an additional 72 hours. This final 72-hour incubation in fresh medium was to permit the macrophages to recover from the drug treatment and to manifest any phenotype changes that might have been induced by exposure to the drug construct. All experiments were replicated 5-8 times with peripheral blood monocytes obtained from 5 separate donors. After the last 72-hour incubation, the media were collected and analyzed for their concentrations of various cytokines.

COc1cccc2c1C(=O)c1c(O)c3c(c(O)c1C2=O)C[C@@](O)(C(=O)CO)C[C@@H]3O[C@H]1C[C@H](N)[C@H](O)[C@H](C)O1 [free doxorubicin, doxorubicin]
cell death: high levels of cell death
